Reference: ChEMBL document CHEMBL5244230, “Artemisinin-derived hybrids and their anticancer activity” (Eur J Med Chem, 2020)
Several values for one entry are separate records, joined by “and”; a condition that tells them apart may be missing. Identical values can stand only once.

Tests used:
HeLa [1] = assay: Cytotoxicity against human HeLa cells assessed as cell viability incubated for 48 hrs by MTT assay; format: functional, cell-based
[2] = Anticancer activity against human Lu1 cells; format: functional, cell-based
P388 = assay: Anticancer activity against mouse P388 cells; format: functional, cell-based
MCF7 [3] = assay: Anticancer activity against human MCF7 cells; format: functional, cell-based
MCF7 [4] = assay: Anticancer activity against human MCF7 cells assessed as inhibition of cell growth; format: functional, cell-based
HL-60 = assay: Anticancer activity against human HL-60 cells; format: functional, cell-based
KB = assay: Antiproliferative activity against human KB cells; format: functional, cell-based
HepG2 [5] = assay: Antiproliferative activity against human HepG2 cells; format: functional, cell-based
A549 = assay: Antiproliferative activity against human A549 cells; format: functional, cell-based
HCT-116 [6] = assay: Antiproliferative activity against human HCT-116 cells; format: functional, cell-based
MV4-11 = assay: Antiproliferative activity against human MV4-11 cells; format: functional, cell-based
A2780 = assay: Antiproliferative activity against human A2780 cells assessed as reduction in cell viability; format: functional, cell-based
OVCAR-3 = assay: Antiproliferative activity against human OVCAR-3 cells assessed as reduction in cell viability; format: functional, cell-based
Hep 3B2 = assay: Antiproliferative activity against human Hep3B cells assessed as reduction in cell viability; format: functional, cell-based
HepG2 [7] = assay: Antiproliferative activity against human HepG2 cells assessed as reduction in cell viability; format: functional, cell-based
[8] = Cytotoxicity against human HCEC cells; format: toxicity, cell-based
HCT-116 [9] = assay: Antiproliferative activity against human HCT-116 cells assessed as reduction in cell viability; format: functional, cell-based; settings: Homo sapiens, HCT-116
HeLa [10] = assay: Antiproliferative activity against human HeLa cells assessed as reduction in cell viability; format: functional, cell-based

COc1ccc2nc3cc(Cl)ccc3c(N3CCN(CCNCCO[C@H]4O[C@@H]5O[C@@]6(C)CC[C@H]7[C@H](C)CC[C@@H]([C@H]4C)[C@@]57OO6)CC3)c2c1
IC50 (HeLa [1]): 400 nM

C[C@H]1[C@@H](OCCc2cn(-c3cccc(C(=O)N4CCCCC4)c3)nn2)O[C@@H]2O[C@@]3(C)CC[C@H]4[C@H](C)CC[C@@H]1[C@@]24OO3
IC50 [2]: 5700 nM
IC50 (P388): 5700 nM
IC50 (MCF7 [3]): 5700 nM
IC50 (MCF7 [4]): 5700 nM
IC50 (HL-60): 5700 nM

Cc1c2ccncc2c(C)c2c1[nH]c1ccccc12 [ELLIPTECINE]
IC50 [2]: 1700 nM
IC50 (P388): 1700 nM
IC50 (KB): 810 nM
IC50 (MCF7 [3]): 1700 nM
IC50 (MCF7 [4]): 1700 nM
IC50 (HepG2 [5]): 930 nM
IC50 (HL-60): 1700 nM

COC(=O)c1ccc2c(c1)c(NCC(C)(C)CNC(=O)CCC(=O)O[C@H]1O[C@@H]3O[C@@]4(C)CC[C@H]5[C@H](C)CC[C@@H]([C@H]1C)[C@@]35OO4)c1c3ccccc3nc-1n2C
IC50 (A549): 72 nM
IC50 (HCT-116 [6]): 72 nM
IC50 (MV4-11): 72 nM

CCN(CC)c1ccc2cc(C(=O)N3CCN(C(=O)CN4CCN(CCC[C@H]5O[C@@H]6O[C@@]7(C)CC[C@H]8[C@H](C)CC[C@@H]([C@H]5C)[C@@]68OO7)CC4)CC3)c(=O)oc2c1
IC50 (A2780): 2330 nM
IC50 (OVCAR-3): 2330 nM
IC50 (Hep 3B2): 2330 nM
IC50 (HepG2 [7]; hepg2): 2330 nM and 6280 nM

C[C@H]1[C@@H](Sc2ccccc2)O[C@@H]2O[C@@]3(C)CC[C@H]4[C@H](C)CC[C@@H]1[C@@]24OO3
IC50 [8]: 5240 nM

C[C@H]1[C@@H](OC(=O)CCC(=O)NCC(C)(C)CNc2c3c4ccccc4nc-3n(C)c3ccc(Br)cc23)O[C@@H]2O[C@@]3(C)CC[C@H]4[C@H](C)CC[C@@H]1[C@@]24OO3
IC50 (A549): 72 nM
IC50 (HCT-116 [6]): 72 nM
IC50 (MV4-11): 72 nM

C[C@H]1[C@@H](OC(=O)CCC(=O)NCCCNc2c3ccccc3nc3c2[nH]c2ccccc23)O[C@@H]2O[C@@]3(C)CC[C@H]4[C@H](C)CC[C@@H]1[C@@]24OO3
IC50 (A549): 286 nM
IC50 (HCT-116 [6]): 286 nM
IC50 (MV4-11): 286 nM

C[C@H]1[C@H](Sc2ccccc2)O[C@@H]2O[C@@]3(C)CC[C@H]4[C@H](C)CC[C@@H]1[C@@]24OO3
IC50 [8]: 930 nM

CCN(CC)c1ccc2cc(C(=O)NCCNC(=O)CN3CCN(CCC[C@H]4O[C@@H]5O[C@@]6(C)CC[C@H]7[C@H](C)CC[C@@H]([C@H]4C)[C@@]57OO6)CC3)c(=O)oc2c1
IC50 (A2780): 2330 nM
IC50 (OVCAR-3): 2330 nM
IC50 (Hep 3B2): 2330 nM
IC50 (HepG2 [7]; hepg2): 2330 nM and 6280 nM

CCN(CC)c1ccc2cc(C(=O)N3CCN(CCC[C@H]4O[C@@H]5O[C@@]6(C)CC[C@H]7[C@H](C)CC[C@@H]([C@H]4C)[C@@]57OO6)CC3)c(=O)oc2c1
IC50 (A2780): 2330 nM
IC50 (OVCAR-3): 2330 nM
IC50 (Hep 3B2): 2330 nM
IC50 (HepG2 [7]; Homo sapiens, HepG2): 2330 nM

C[C@H]1[C@@H](CCCOP(=O)(O)Oc2ccccc2)O[C@@H]2O[C@@]3(C)CC[C@H]4[C@H](C)CC[C@@H]1[C@@]24OO3
IC50 (HCT-116 [9]): 3820 nM
IC50 (HeLa [10]): 3820 nM

C[C@H]1[C@@H](CC(COP(=O)(O)Oc2ccccc2)C[C@H]2O[C@@H]3O[C@]4(C)CC[C@H]5[C@H](C)CC[C@@H]([C@H]2C)[C@@]35OO4)O[C@@H]2O[C@@]3(C)CC[C@H]4[C@H](C)CC[C@@H]1[C@@]24OO3 (stereo partly drawn)
IC50 (HCT-116 [9]): 40 nM
IC50 (HeLa [10]): 40 nM

C[C@H]1[C@@H](CCCOP(=O)(Oc2ccccc2)Oc2ccccc2)O[C@@H]2O[C@@]3(C)CC[C@H]4[C@H](C)CC[C@@H]1[C@@]24OO3
IC50 (HCT-116 [9]): 3820 nM
IC50 (HeLa [10]): 3820 nM

COC(=O)c1ccc2c(c1)c(NCC(O)CNC(=O)CCC(=O)O[C@H]1O[C@@H]3O[C@@]4(C)CC[C@H]5[C@H](C)CC[C@@H]([C@H]1C)[C@@]35OO4)c1c3ccccc3nc-1n2C (stereo partly drawn)
IC50 (A549): 72 nM
IC50 (HCT-116 [6]): 72 nM
IC50 (MV4-11): 72 nM

C[C@H]1[C@@H](OC(=O)CCC(=O)NCCCNc2c3c4ccccc4nc-3n(C)c3ccccc23)O[C@@H]2O[C@@]3(C)CC[C@H]4[C@H](C)CC[C@@H]1[C@@]24OO3
IC50 (A549): 72 nM
IC50 (HCT-116 [6]): 72 nM
IC50 (MV4-11): 72 nM
